Measurements reported in patent US20130344065A1, “Combination Treatment with VEGF-C Antagonists” (Vegenics Pty Ltd, priority 2010, published 2013).
Values joined by “and” are separate entries in the source; they are usually repeats but may differ in a detail not shown here. Equal values may be shown once.

Key:
[1] = tested on: metastatic colorectal cancer; conditions: cited from earlier work
[2] = tested on: PC-3 human prostate carcinoma xenografts; assay: PC-3 xenograft combination therapy (Example 3, first study); conditions: for Tumor Growth Delay: T-C, evaluation size 750 mg; for % T/C Day 22: VGX-100 40 mg/kg IP, bevacizumab 10 mg/kg IP, docetaxel 10 mg/kg IV, median tumor mass vs control; for % TFS (tumor free survivors): at termination, Day 160; for Complete regression / Partial regression / Tumor free survivor: yes/no; for Total CR / Total PR / Total TFS: number of animals of 10;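 for all read-outs here: subcutaneous PC-3 tumors in male athymic NCr nude mice aged 6-7 weeks, combination agents dosed within 30 min of each other, animals euthanized once tumors exceeded 2 g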
Method: Docetaxel was administered intravenously at 10 mg/kg weekly for three injections.
HIgG1 Isotype control-humanised antibody (6.4-12.36 mg/ml) and VGX-100 (5.53 and 5.75 mg/ml) were provided as frozen colorless stock solutions in Dulbecco's phosphate buffered saline (DPBS) and stored from light at −80° C. The stock solutions were thawed and stored at 4° C. when treatment began. The dosing solutions (40 mg/kg in 0.2 ml/20 g body weight) were prepared by diluting the stock solution with DPBS. The resulting formulations were clear with pH values ranging from 7.02-7.21. The dosing vials were kept on wet ice during dosing, gently pipetted and not aspirated through a needle except during administration. Dosing solutions were prepared weekly in DPBS and stored protected from light at 4° C. while not in use.
Docetaxel (lot no. D9A095) was manufactured by Sanofi-Aventis and obtained from McKesson as a pale yellow solution in 50% EtOH/50% Tween80. It was stored protected from light at 4° C. Docetaxel was diluted as directed on the package insert with the provided diluent (sterile water) to produce a clear and colorless 10 mg/ml stock solution. On each treatment day, a fresh 10 mg/ml stock was prepared and further diluted with water to achieve the appropriate concentration. The resulting solution was clear and colorless with a pH of 7.16.
All test articles were administered within two hours of preparation. For groups receiving combination therapy, the drugs were administered in the order presented in Table 1 and within 30 minutes of one another.
Male NCR(NCRNU-M) athymic mice were obtained from Taconic. They were 6-7 weeks old on Day 1 of the experiment. The mice were fed irradiated Rodent Diet 5053 (LabDiet™) and water ad libitum. The mice were housed in static cages with Bed-O'Cobs™ bedding inside Biobubble® Clean Rooms that provide H.E.P.A filtered air into the bubble environment at 100 complete air changes per hour. All treatments, body weight determinations, and tumor measurements were carried out in the bubble environment. The environment was controlled to a temperature range of 21.1±1.1° C. (70±2° F.) and a humidity range of 30-70%.
Test mice were implanted subcutaneously on Day 0. […] Mice with tumors in excess of 2 g or with ulcerated tumors were euthanized, as were those found in obvious distress or in a moribund condition.
PC-3 cells were obtained from ATCC and expanded using Ham's F-12 media supplemented with 10% fetal bovine serum and 1% penicillin-streptomycin-glutamine in 5% CO2 atmosphere at 37° C. When expansion was complete, the cells were collected using Trypsin (Cell Gro®), the trypsin neutralized, and the cells pooled for implantation. The PC-3 (Passage 10) cell suspension was counted using trypan blue exclusion with a hemacytometer. The cell suspension was reduced to a pellet using an Eppendorf 5810R centrifuge at 1500 rpm (300×g) for 5 minutes at 4° C. A 2.5×10^7 cells/ml suspension was prepared in 50% serum free media and 50% Matrigel®. Pre-injection viability was 97.7%. Test animals were implanted subcutaneously on Day 0 with 5×10^6 cells/animal (0.2 ml) using a 27-gauge needle and syringe. The cell suspension was maintained on wet ice to minimize the loss of viability and inverted frequently to maintain a uniform cell suspension during the inoculation procedure.
Treatments began on Day 8, when the mean estimated tumor mass for all groups in the experiment was 129 mg (range of group means, 123-134 mg). All animals weighed≧19.2 g at the initiation of therapy. Mean group body weights at first treatment were matched (range of group means, 21.5-22.8 g). All animals were dosed according to individual body weight on the day of treatment (0.2 ml/20 g).

[3] = tested on: U87MG human glioblastoma tumors; assay: U87MG glioblastoma xenograft, combination (Example 7); assay type: in vivo, nude mice; conditions: VGX-100 40 mg/kg, bevacizumab 10 mg/kg, administered alone
Method: This experiment was conducted broadly in accordance with Example 3, except that U87MG glioblastoma cells were substituted for PC-3 prostate cancer cells. Cells from a human glioblastoma tumor line (U87MG) were implanted subcutaneously into mice and grown until the tumors reached an average size of approximately 150 mg. […] There were 10 animals per treatment group.

[4] = tested on: KP4 human pancreatic tumors; assay: KP4 pancreatic xenograft (Example 8); conditions: VGX-100 40 mg/kg and/or Avastin 10 mg/kg; for % T/C: after 30 days
Method: VGX-100 was administered at 20 or 40 mg/kg for single therapy and at 40/mg/kg for combination therapy.
To initiate the study, 5×10^6 of KP4 cells suspended in 100 μl of a mixture of medium/Matrigel (1:1) were subcutaneously implanted to the nude mice in the right flank region. Cancer cells were implanted into 90 mice. Animals were monitored for tumor growth daily after cell implantation. When tumor volumes reached 80-100 mm^3, mice were randomized into 5 groups of 10 mice each using only mice having tumor volumes closest to the mean value. Mice with tumor volumes too big or too small were excluded from the study. Tumor volumes were measured using the formula V=L×W×H×π/6, where L and W represented the longer and shorter diameters of the tumor and H represented the height of the tumor. The treatment with drugs was initiated on the day after randomization. […] All treatments were administered intraperitoneally twice weekly for 30 days.
Throughout the entire study, tumor volumes were measured twice weekly and body weights once weekly. […] Unscheduled sacrifices were performed if tumor volumes reached>2,000 mm^3, animals lost>25% of their original body weights, tumor ulceration appeared, or mice became moribund. At the end of the experiment, tumors were removed, embedded in Optimal Cutting Temperature (OCT), and stored at −80° C. for IHC analysis. Gross examination was conducted on liver, lung, spleen, kidneys, testes, and prostate. If no abnormal observation was detected on these organs, the tissues were discarded.
Tumor size was measured 2-3 times weekly with calipers. Size of tumors relative to controls is calculated after 30 days of treatment.

[5] = Mayo Clinic or Roswell Park regimen, newly diagnosed
[6] = tumor doubling time, individual animals
[7] = subjects progressed following 5-FU therapy

Compound | Time to evaluation size ([2]; 750 mg, individual animals) | Tumor Growth Delay ([2]; same doses) [days] | % T/C Day 22 [2] [%] | % TFS (tumor free survivors) ([2]; same doses) | Td ([2]; group mean) [days] | Td ([2]; group median) [days] | Time to evaluation size ([2]; group median) [days] | Complete regression ([2]; individual animals) | Partial regression ([2]; individual animals) | Tumor free survivor ([2]; individual animals) | Total CR [2] | Total PR [2] | Total TFS [2] | % CR (complete regression) ([2]; same doses) [%] | % PR (partial regression) ([2]; same doses) [%] | Apparent Net Tumor Cell Kill (logs) ([2]; same doses) | Td [2, 6] | also measured
5-FU/leucovorin |  |  |  |  |  |  |  |  |  |  |  |  |  |  |  |  |  | Median survival [1, 5]: 12-14 months; Median time to disease progression [1, 5]: 4-5 months
CC(=O)O[C@@]12CO[C@@H]1C[C@H](O)[C@@]1(C)C(=O)[C@H](O)C3=C(C)[C@@H](OC(=O)[C@H](O)[C@@H](NC(=O)OC(C)(C)C)c4ccccc4)C[C@@](O)([C@@H](OC(=O)c4ccccc4)[C@H]21)C3(C)C [Docetaxel, docetaxel] | 81.0 days (2×) and >160 days (2×) and 62.3 days and 89.1 days and 72.1 days and 69.0 days and 62.5 days and 66.5 days | 56.5 | 8 | Twenty percent and 20% | 8.8 | 8.8 | 76.5 | yes | no | no (8×) and yes (2×) | 10 | 0 | 2 | 100 | 0 | 1.13 | 5.1 days and 8.5 days and 9.4 days and 9.1 days and 13.2 days and 6.5 days and 13.4 days and 5.0 days | % T/C: tumor burden in treatment group compared to control ([2]; at day 160): 82.4%; Time to fold growth EP ([2]; group mean): 86.0 days; Time to fold growth EP ([2]; group median): 69.6 days; Time to fold growth EP ([2]; individual animals): 78.1 days and >160 days (2×) and 57.4 days and 81.6 days and 65.4 days and 58.5 days and 60.0 days and 73.3 days and 65.9 days; Anticancer activity of regimen ([2]; same doses): highly active; Average Survival ([2]; study to day 160): 108.6 days
CCc1c2c(nc3ccc(OC(=O)N4CCC(N5CCCCC5)CC4)cc13)-c1cc3c(c(=O)n1C2)COC(=O)[C@]3(O)CC [irinotecan] |  |  |  |  |  |  |  |  |  |  |  |  |  |  |  |  |  | Prolongation of survival vs best supportive care [1, 7]: 2.8 month; Prolongation of survival vs infusional 5-FU [1, 7]: 2.2 month
Bevacizumab: recombinant humanized VEGF-A monoclonal antibody | 36.3 days and 24.4 days and 25.8 days and 33.0 days and 30.5 days and 25.2 days and 25.4 days and 44.3 days and 18.0 days and 22.7 days | 5.6 | 70 | 0% | 12.2 | 9.6 | 25.6 | no | no | no | 0 | 0 | 0 | 0 | 0 | −4.91 | 16.9 days and 7.4 days and 7.5 days and 13.7 days and 16.8 days and 10.6 days and 8.6 days and 27.8 days and 4.8 days and 8.4 days | Effect on tumor growth [3]: only a minor effect; Mean Tumor Vol. at D30 (mm3) [4]: 596.7 mm3; % T/C ([4]; listed as Avastin): 30.4%; % T/C ([4]; listed as bevacizumab): 30.4%; Time to evaluation size ([2]; group mean): 28.6 days; Tumor regressions ([2]; same doses): No tumor regressions were observed
